The values that follow come from patent US20140024687A1, “Combinations of Vascular Disrupting Agents with Inhibitor of Apoptosis Proteins Antagonists” (priority 2009, published 2014).

The subject of data set [1] is MDA-MB-231 human breast cancer orthotopic xenograft. Put plainly: Single agent anti-tumor activity, MDA-MB-231 human breast cancer orthotopic xenograft (Example 1). It counts as in vivo, athymic nude mice. As to conditions: day 71 post implantation; Compound B 150 mg/kg po qw days 50, 57, 64; Compound A 20 mg/kg iv days 50, 54, 58; p<0.05 compared to vehicle controls. The protocol: Treatment started on day 50 following orthotopic implantation of 7.5×10^6 MDA-MB-231 human breast cancer cells into the mammary fat pad. Starting tumor volume averaged 160 mm^3 (range=76 to 286); n=8/group. […] The vehicle for […] is 10% Tris-HCl buffer and 90% 1×PBS, Statistical analysis performed on delta tumor volumes on day 71 post implantation using a One-way ANOVA followed by a post hoc Tukey test.
In general terms: Xenograft models place foreign cells or tissue in a host animal.

In a further data set the test system is mouse TNF. In words: Mouse TNF in MDA-MB-231 breast xenograft tissue after treatment. The class given is in vivo. As to conditions: tumors collected 6 hrs after final dose; n=4, no statistical analysis. An excerpt: (§1) Due to the small sample size (n=4), statistical analysis was not performed.
Data set [2] relates to HS944.t human melanoma xenograft. As to conditions: B 100 mg/kg po qw; A 15 mg/kg iv; combination; days 14 and 21.
Description: Treatment started on day 14 following subcutaneous implantation of 5.0×10^6 Hs944.t human melanoma cancer cells in 50% basement membrane matrix. Starting tumor volume averaged 245 mm^3 (range=146 to 321); n=8/group. In this study, (s)—N—((S)-1-cyclohexyl-2-{(S)-2-[4-(4-fluoro-benzoyl)-thiazol-2-yl]-pyrrolidin-1-yl}-2-oxo-ethyl)-2-methylamino-propionamide was administered orally (po) at 100 mg/kg, qw, 5,6-dimethylxanthenone-4-acetic acid was administered intravenously (iv) at 15 mg/kg, or (S)—N—((S)-1-cyclohexyl-2-{(S)-2-[4-(4-fluoro-benzoyl)-thiazol-2-yl]-pyrrolidin-1-yl}-2-oxo-ethyl)-2-methylamino-propionamide and 5,6-dimethylxanthenone-4-acetic acid were administered in combination on days 14 and 21 post implantation, Vehicle control for (S)—N—((S)-1-cyclohexyl-2-{(S)-2-[4-(4-fluoro-benzoyl)-thiazol-2-yl]-pyrrolidin-1-yl}-2-oxo-ethyl)-2-methylamino-propionamide is 30% 0.1N HCl and 70% 100 mM sodium acetate buffer, pH 4.63, Vehicle control for 5,6-dimethylxanthenone-4-acetic acid is 10% 1× Tris-HCl and 90% 1×PBS, Statistical analysis performed on tumor volumes from day 14-27 post implantation using a repeated measures MANOVA test.
The subject of a further data set is TNF mRNA. As to conditions: Colon 38 tumor bearing mice (Joseph WR, 1999); cited from earlier work.
The subject of the next data set is human TNF. Put plainly: Human TNF in MDA-MB-231 tumor lysates after treatment. It counts as in vivo. As to conditions: tumors collected 6 hrs after final dose; n=4, no statistical analysis.
Description: as §1

For the compound `Cc1ccc2c(=O)c3cccc(CC(=O)O)c3oc2c1C` [Compound A, 5,6-dimethylxanthenone-4-acetic acid], the “single agent anti-tumor activity (delta tumor volumes vs vehicle controls)” value in data set [1] was “demonstrated single agent anti-tumor activity”. Moreover, the “mouse TNF in xenograft tissue” value in the data set with mouse TNF is listed as “increase in mouse TNF”. Further, the “surviving animals at study termination” value in data set [2] is reported as 7/8. For the same compound, in the data set with TNF mRNA, the “TNF mRNA in tumor, spleen, and liver” value was “increase TNF mRNA”.
Turning to `CN[C@@H](C)C(=O)N[C@H](C(=O)N1CCC[C@H]1c1nc(C(=O)c2ccc(F)cc2)cs1)C1CCCCC1` [Compound B, (S)—N—((S)-1-Cyclohexyl-2-{(S)-2-[4-(4-fluoro-benzoyl)-thiazol-2-yl]-pyrrolidin-1-yl}-2-oxo-ethyl)-2-methylamino-propionamide], the “single agent anti-tumor activity (delta tumor volumes vs vehicle controls)” value in data set [1] was “demonstrated single agent anti-tumor activity”. Also, the “human TNF in MDA-MB-231 tumor lysates” value in the data set with human TNF is “increase in human TNF”.
